Results: ChEMBL document CHEMBL1201862, “PubChem BioAssay data set” (2004)
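In this assay, cells in 96-well plates receive the compound at five concentrations for 48 hours. Endpoints are linearly interpolated between the surrounding concentrations. GI50 = concentration required for 50% inhibition of growth.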 Active and inactive are the calls of the source. Rule as the data show it: active = GI50 up to about 1.1 µM and inactive = higher.

What was measured:
Assay in all cases: DTP human tumour cell line panel, 48 h
[1] = test system: OVCAR-5
[2] = test system: OVCAR-8
[3] = test system: NCI-H522
[4] = test system: SNB-75
[5] = test system: A549
[6] = test system: Malme-3M
[7] = test system: LXFL 529
[8] = test system: M14
[9] = test system: COLO 205
[10] = test system: KM12
[11] = test system: ACHN
[12] = test system: NCI-H226
[13] = test system: UACC-257
[14] = test system: CAKI-1
[15] = test system: SF-539
[16] = test system: SK-MEL-28
[17] = test system: IGROV-1

Measured: GI50

CCOC(=O)C(c1ccsc1)P(=O)(OCC)OCC (configuration not stated)
inactive: [1] 23.1 µM | [2] 16.6 µM | [3] 3.89 µM | [4] 24.1 µM | [5] 22.4 µM | [6] 23.2 µM | [7] 12 µM | [8] 12.9 µM | [9] 13.3 µM | [10] 13.4 µM | [11] 19.6 µM | [12] 18.4 µM | [13] 15.4 µM | [14] 14.1 µM | [15] 14.2 µM | [16] 15.1 µM

O/N=C1\CCCCC1C(NO)c1ccccc1 (configuration not stated)
inactive: [1] > 100 µM | [2] > 100 µM | [3] 81.5 µM | [4] 23.7 µM | [5] > 100 µM | [6] > 100 µM | [7] > 100 µM | [8] > 100 µM | [9] > 100 µM | [10] > 100 µM | [11] > 100 µM | [17] > 100 µM | [13] > 100 µM | [15] > 100 µM | [16] > 100 µM

O=C(Cc1nc2ccccc2o1)C(=O)Nc1cccc(Cl)c1
inactive: [2] > 100 µM | [3] > 100 µM | [4] > 100 µM | [5] > 100 µM | [6] > 100 µM | [7] > 100 µM | [8] > 100 µM | [9] > 100 µM | [10] > 100 µM | [11] > 100 µM | [17] > 100 µM | [12] > 100 µM | [13] > 100 µM | [14] > 100 µM | [15] > 100 µM | [16] > 100 µM

COC(=O)/C(=N\NC(N)=O)C(C#N)c1ccccc1 (configuration not stated)
inactive: [1] > 100 µM | [2] > 100 µM | [3] > 100 µM | [4] > 100 µM | [5] > 100 µM | [6] > 100 µM | [7] > 100 µM | [8] > 100 µM | [9] > 100 µM | [10] > 100 µM | [11] > 100 µM | [12] > 100 µM | [13] > 100 µM | [15] > 100 µM | [16] > 100 µM

CC(Oc1ccc(OCC2CCCCC2)cc1)C(N)=O (configuration not stated)
inactive: [2] > 100 µM | [3] 87.9 µM | [4] > 100 µM | [5] > 100 µM | [6] > 100 µM | [7] > 100 µM | [8] > 100 µM | [10] > 100 µM | [11] > 100 µM | [12] > 100 µM | [13] 72.3 µM | [15] > 100 µM | [16] > 100 µM

Clc1ccc(-c2nnc3c4nnc(-c5ccc(Cl)cc5Cl)n4c4ccccc4n23)c(Cl)c1
inactive: [1] > 100 µM | [2] > 100 µM | [3] > 100 µM | [4] 26.5 µM | [5] > 100 µM | [6] > 100 µM | [7] > 100 µM | [8] > 100 µM | [9] > 100 µM | [10] > 100 µM | [11] > 100 µM | [17] > 100 µM | [13] > 100 µM | [14] > 100 µM | [15] > 100 µM | [16] > 100 µM

c1ccc(CSc2nc3ccccc3nc2-c2cccs2)cc1
inactive: [1] > 100 µM | [2] > 100 µM | [3] 41.3 µM | [4] > 100 µM | [5] > 100 µM | [6] > 100 µM | [7] > 100 µM | [8] > 100 µM | [9] > 100 µM | [10] > 100 µM | [11] > 100 µM | [17] > 100 µM | [12] > 100 µM | [13] > 100 µM | [15] > 100 µM | [16] > 100 µM

COC(=O)C1=Cc2cc3c(cc2[C@H](c2ccc4c(c2)OCO4)C1C(=O)OC)OCO3 (some centres not stated)
inactive: [1] > 100 µM | [2] > 100 µM | [4] 44.8 µM | [5] > 100 µM | [6] > 100 µM | [7] > 100 µM | [8] 68.1 µM | [9] 37.8 µM | [10] 67.1 µM | [11] 43.9 µM | [17] 1.73 µM | [12] > 100 µM | [13] > 100 µM | [14] 74.1 µM | [15] > 100 µM | [16] > 100 µM

Cc1c2ccccc2cc2ccc3oc([N+](=O)[O-])cc3c12
inactive: [1] > 100 µM | [2] > 100 µM | [4] > 100 µM | [5] > 100 µM | [6] > 100 µM | [7] > 100 µM | [8] 4.46 µM | [9] > 100 µM | [10] > 100 µM | [11] 4.73 µM | [17] > 100 µM | [13] > 100 µM | [14] > 100 µM | [15] > 100 µM
